SMILES strings stand for the structures. Like-named read-outs stand apart in the source and are kept apart here.

Type in all cases: biochemical
In one assay the target is PI3Kβ (Homo sapiens (Human), UniProt P42338). In words: TR-FRET enzymatic assay of PI3K isoforms (PI3Kβ). As to conditions: TR-FRET, 2×Km ATP, 2 μM PIP2, incubated for 30 minutes at 25° C.; read-out: β IC50. The method, then: (§1) The compounds of formula (I) were characterized for their enzymatic activity against the PI3K isoforms. Certain compounds of the present application, including certain compounds of formula (II) and (III) were also characterized for their enzymatic activity against PI3K isoforms. The activities were measured using a time-resolved fluorescence resonance energy transfer (TR-FRET) assay.
On the technique in general: Time-resolved FRET reads energy transfer from a long-lived donor to a nearby acceptor.

A further assay deals with PI3Kδ (Homo sapiens (Human), UniProt O00329). In words: TR-FRET enzymatic assay of PI3K isoforms (PI3Kδ). Conditions: 2×Km ATP, 2 μM PIP2, incubated for 30 minutes at 25° C., read-out: δ IC50. The method, then: as §1
The target of a further assay is PI3Kγ (Homo sapiens (Human), UniProt P48736). In words: TR-FRET enzymatic assay of PI3K isoforms (PI3Kγ). As to conditions: read-out: γ IC50. The method, then: as §1
The mark [1] stands for this setting: TR-FRET, 2×Km ATP, 2 μM PIP2, PI3Kγ at 2 nM, incubated for 30 minutes at 25° C.

Sequence of PI3Kγ (P48736 whole entry, canonical isoform): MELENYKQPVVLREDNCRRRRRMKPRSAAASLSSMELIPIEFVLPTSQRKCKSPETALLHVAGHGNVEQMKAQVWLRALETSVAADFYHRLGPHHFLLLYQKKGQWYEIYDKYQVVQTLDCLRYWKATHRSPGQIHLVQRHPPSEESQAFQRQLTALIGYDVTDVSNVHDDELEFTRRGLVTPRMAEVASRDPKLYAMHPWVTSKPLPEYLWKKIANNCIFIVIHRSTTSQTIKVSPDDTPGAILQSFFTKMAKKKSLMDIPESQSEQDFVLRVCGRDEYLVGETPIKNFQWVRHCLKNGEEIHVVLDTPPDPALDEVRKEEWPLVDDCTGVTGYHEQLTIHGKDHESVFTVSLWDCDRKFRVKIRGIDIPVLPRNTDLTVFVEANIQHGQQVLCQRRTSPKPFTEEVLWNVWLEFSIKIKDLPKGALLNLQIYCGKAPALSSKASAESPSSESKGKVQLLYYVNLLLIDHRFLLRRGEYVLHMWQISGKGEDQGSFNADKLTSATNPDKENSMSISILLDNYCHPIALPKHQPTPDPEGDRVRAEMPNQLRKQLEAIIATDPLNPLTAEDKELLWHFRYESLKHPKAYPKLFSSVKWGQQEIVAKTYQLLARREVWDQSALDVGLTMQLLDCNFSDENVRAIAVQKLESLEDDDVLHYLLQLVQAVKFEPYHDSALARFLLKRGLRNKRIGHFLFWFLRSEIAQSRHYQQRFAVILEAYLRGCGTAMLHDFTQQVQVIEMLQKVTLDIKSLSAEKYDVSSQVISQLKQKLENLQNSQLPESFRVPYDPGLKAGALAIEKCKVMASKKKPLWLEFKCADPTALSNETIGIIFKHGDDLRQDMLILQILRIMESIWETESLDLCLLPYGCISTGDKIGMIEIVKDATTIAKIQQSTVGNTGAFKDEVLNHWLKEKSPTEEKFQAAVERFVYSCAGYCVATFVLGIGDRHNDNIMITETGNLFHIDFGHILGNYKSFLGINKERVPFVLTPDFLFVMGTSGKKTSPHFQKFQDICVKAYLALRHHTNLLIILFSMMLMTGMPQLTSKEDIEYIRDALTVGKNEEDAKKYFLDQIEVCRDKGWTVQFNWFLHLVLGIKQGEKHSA
Sequence of PI3Kγ (Q8WYR1 whole entry partner, canonical isoform): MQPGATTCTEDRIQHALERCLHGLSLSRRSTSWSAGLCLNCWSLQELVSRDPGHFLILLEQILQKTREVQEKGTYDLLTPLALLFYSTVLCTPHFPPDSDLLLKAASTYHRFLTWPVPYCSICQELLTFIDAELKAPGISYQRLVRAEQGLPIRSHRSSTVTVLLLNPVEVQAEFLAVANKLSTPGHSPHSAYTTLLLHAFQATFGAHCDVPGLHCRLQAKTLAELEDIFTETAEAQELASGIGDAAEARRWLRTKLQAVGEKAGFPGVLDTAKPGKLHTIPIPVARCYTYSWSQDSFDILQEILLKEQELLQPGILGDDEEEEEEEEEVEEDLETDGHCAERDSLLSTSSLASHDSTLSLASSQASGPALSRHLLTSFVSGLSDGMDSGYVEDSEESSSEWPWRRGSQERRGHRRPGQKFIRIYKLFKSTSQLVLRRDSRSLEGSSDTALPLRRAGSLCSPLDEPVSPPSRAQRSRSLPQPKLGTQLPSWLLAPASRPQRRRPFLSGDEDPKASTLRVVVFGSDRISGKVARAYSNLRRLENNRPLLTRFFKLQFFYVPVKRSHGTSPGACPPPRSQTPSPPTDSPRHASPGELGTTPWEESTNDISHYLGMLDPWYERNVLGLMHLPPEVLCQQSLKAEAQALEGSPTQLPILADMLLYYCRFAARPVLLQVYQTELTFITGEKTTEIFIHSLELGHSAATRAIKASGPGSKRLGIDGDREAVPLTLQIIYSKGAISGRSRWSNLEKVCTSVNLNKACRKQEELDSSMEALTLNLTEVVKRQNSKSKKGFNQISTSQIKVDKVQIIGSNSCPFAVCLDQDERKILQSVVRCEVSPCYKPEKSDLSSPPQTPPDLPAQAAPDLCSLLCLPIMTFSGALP
Sequence of PI3Kβ (P42338 whole entry, canonical isoform): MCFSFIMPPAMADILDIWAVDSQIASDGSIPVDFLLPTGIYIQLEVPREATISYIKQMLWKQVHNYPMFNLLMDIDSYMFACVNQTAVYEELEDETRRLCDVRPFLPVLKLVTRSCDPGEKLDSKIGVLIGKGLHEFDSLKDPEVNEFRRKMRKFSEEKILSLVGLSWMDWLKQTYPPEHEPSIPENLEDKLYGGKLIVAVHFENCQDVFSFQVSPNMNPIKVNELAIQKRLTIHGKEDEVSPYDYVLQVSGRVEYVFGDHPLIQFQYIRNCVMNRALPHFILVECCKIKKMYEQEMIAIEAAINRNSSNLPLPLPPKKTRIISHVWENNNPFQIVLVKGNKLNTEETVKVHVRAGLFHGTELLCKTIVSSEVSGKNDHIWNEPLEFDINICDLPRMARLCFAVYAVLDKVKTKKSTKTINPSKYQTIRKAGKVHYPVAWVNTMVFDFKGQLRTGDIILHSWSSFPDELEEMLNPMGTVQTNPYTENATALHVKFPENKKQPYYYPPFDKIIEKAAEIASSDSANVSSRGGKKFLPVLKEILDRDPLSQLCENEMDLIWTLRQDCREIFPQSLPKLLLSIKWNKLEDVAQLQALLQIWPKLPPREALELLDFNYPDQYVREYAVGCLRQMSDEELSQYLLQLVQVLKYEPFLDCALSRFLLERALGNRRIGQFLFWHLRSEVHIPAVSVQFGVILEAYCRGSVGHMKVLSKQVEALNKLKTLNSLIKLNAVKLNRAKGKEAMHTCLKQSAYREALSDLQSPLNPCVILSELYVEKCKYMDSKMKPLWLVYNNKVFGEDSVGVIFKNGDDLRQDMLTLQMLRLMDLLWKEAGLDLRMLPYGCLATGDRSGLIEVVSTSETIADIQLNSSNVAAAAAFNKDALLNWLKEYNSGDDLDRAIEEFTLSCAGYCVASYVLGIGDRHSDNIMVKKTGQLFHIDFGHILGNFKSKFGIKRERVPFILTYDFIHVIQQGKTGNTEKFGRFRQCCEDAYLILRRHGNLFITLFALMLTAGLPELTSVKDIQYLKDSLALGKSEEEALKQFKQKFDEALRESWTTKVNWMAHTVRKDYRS
Sequence of PI3Kβ (P27986 whole entry partner, canonical isoform): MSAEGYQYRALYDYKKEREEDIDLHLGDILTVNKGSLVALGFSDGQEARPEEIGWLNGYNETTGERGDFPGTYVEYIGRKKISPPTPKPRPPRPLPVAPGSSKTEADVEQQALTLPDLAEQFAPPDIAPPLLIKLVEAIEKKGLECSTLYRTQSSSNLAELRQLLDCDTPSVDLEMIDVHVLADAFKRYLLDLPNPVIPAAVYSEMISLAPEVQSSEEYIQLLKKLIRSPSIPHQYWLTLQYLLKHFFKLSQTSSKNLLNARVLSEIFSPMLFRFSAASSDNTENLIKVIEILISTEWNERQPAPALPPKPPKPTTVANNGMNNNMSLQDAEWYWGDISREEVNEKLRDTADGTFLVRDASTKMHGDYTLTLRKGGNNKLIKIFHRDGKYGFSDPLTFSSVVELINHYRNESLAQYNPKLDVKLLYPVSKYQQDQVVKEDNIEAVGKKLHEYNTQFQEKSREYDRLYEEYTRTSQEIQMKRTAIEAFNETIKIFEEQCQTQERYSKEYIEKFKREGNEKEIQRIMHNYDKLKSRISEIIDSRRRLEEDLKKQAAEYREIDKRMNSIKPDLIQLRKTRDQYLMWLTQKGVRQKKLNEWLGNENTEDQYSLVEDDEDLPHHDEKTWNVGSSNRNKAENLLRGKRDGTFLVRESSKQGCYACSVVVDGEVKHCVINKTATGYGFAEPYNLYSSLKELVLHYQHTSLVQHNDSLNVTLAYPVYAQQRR
Sequence of PI3Kδ (O00329 whole entry, canonical isoform): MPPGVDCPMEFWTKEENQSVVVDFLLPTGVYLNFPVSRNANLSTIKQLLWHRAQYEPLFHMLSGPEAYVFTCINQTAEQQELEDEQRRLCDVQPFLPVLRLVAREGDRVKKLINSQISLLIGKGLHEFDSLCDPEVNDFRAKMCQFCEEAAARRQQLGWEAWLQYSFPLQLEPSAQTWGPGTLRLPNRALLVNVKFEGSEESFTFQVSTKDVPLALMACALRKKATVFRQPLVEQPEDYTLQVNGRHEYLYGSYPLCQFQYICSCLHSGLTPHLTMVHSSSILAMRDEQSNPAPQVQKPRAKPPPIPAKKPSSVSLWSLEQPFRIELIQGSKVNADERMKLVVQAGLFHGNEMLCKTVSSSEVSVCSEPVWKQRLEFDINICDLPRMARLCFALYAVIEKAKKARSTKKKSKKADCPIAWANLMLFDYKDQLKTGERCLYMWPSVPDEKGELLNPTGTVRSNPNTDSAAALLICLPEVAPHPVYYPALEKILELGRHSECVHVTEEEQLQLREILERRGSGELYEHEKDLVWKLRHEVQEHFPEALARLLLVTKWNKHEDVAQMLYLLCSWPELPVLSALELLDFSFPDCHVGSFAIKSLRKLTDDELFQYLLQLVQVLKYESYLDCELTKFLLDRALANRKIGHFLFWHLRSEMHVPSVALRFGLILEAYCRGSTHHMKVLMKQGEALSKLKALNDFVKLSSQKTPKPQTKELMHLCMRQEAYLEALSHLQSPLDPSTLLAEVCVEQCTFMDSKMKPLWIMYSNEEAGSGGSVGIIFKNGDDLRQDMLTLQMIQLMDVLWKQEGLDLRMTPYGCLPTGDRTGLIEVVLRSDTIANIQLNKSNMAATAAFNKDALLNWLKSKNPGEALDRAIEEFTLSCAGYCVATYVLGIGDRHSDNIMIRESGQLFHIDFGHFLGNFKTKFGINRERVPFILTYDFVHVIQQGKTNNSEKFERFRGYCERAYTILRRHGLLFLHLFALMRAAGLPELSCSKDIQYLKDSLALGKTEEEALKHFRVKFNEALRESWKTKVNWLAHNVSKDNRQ
Sequence of PI3Kδ (P27986 whole entry partner, canonical isoform): as the sequence (P27986 whole entry partner, canonical isoform) above

Regarding `C[C@H](Nc1ncnc(N)c1C#N)c1nc2cccc(Cl)c2c(=O)n1-c1cccc(NC(=O)NC2CCCC2)c1` [Compound 121, (S)-1-(3-(2-(1-((6-amino-5-cyanopyrimidin-4-yl)amino)ethyl)-5-chloro-4-oxoquinazolin-3(4H)-yl)phenyl)-3-cyclopentylurea], the IC50 on PI3Kβ came to 3 nM; on PI3Kδ, 3 nM; at PI3Kγ (setting [1]), 1600 nM.
As for `C[C@H](Nc1ncnc(N)c1C#N)c1nc2cccc(Cl)c2c(=O)n1-c1cccc(NC(=O)NC2CCCCC2)c1` [Compound 122, (S)-1-(3-(2-(1-((6-amino-5-cyanopyrimidin-4-yl)amino)ethyl)-5-chloro-4-oxoquinazolin-3(4H)-yl)phenyl)-3-cyclohexylurea], the IC50 on PI3Kβ was 3 nM; on PI3Kδ it was 4 nM; at PI3Kγ (setting [1]), 2000 nM.
The like results for `C[C@H](Nc1ncnc(N)c1C#N)c1nc2cccc(Cl)c2c(=O)n1-c1cccc(NC(=O)NC2CCC2)c1` [Compound 123, (S)-1-(3-(2-(1-((6-amino-5-cyanopyrimidin-4-yl)amino)ethyl)-5-chloro-4-oxoquinazolin-3(4H)-yl)phenyl)-3-cyclobutylurea] were, in that order, 7 nM, 3 nM and 2200 nM.
For `C[C@H](Nc1ncnc(N)c1C#N)c1nc2cccc(Cl)c2c(=O)n1-c1cccc(NC(=O)NC(C)(C)C)c1` [Compound 124, (S)-1-(3-(2-(1-((6-amino-5-cyanopyrimidin-4-yl)amino)ethyl)-5-chloro-4-oxoquinazolin-3(4H)-yl)phenyl)-3-(tert-butyl)urea], the IC50 at PI3Kβ worked out at 14 nM; on PI3Kδ it was 9 nM; on PI3Kγ (setting [1]) it was 3300 nM.
For the compound `C[C@H](Nc1ncnc(N)c1C#N)c1nc2cccc(Cl)c2c(=O)n1-c1cccc(NC(=O)NC2CC2)c1` [Compound 125, (S)-1-(3-(2-(1-((6-amino-5-cyanopyrimidin-4-yl)amino)ethyl)-5-chloro-4-oxoquinazolin-3(4H)-yl)phenyl)-3-cyclopropylurea], the half-inhibitory concentration (IC50) at PI3Kβ is 7 nM; on PI3Kδ, 7 nM; on PI3Kγ (setting [1]), 3400 nM.
With `CCCNC(=O)Nc1cccc(-n2c([C@H](C)Nc3ncnc(N)c3C#N)nc3cccc(Cl)c3c2=O)c1` [Compound 126, (S)-1-(3-(2-(1-((6-amino-5-cyanopyrimidin-4-yl)amino)ethyl)-5-chloro-4-oxoquinazolin-3(4H)-yl)phenyl)-3-propylurea], the IC50 at PI3Kβ stood at 8 nM; at PI3Kδ, 4 nM; on PI3Kγ (setting [1]) it was 2900 nM.
For `C[C@H](Nc1ncnc(N)c1C#N)c1nc2cccc(Cl)c2c(=O)n1-c1cccc(NC(=O)NCCF)c1` [Compound 127, (S)-1-(3-(2-(1-((6-amino-5-cyanopyrimidin-4-yl)amino)ethyl)-5-chloro-4-oxoquinazolin-3(4H)-yl)phenyl)-3-(2-fluoroethyl)urea] the same measures were 8 nM, 5 nM and 5800 nM.
For `C[C@H](Nc1ncnc(N)c1C#N)c1nc2cccc(Cl)c2c(=O)n1-c1cccc(NC(=O)NCCCO)c1` [Compound 128, (S)-1-(3-(2-(1-((6-amino-5-cyanopyrimidin-4-yl)amino)ethyl)-5-chloro-4-oxoquinazolin-3(4H)-yl)phenyl)-3-(3-hydroxypropyl)urea] the same measures were 9 nM, 4 nM and 5600 nM.
`CC(O)CNC(=O)Nc1cccc(-n2c([C@H](C)Nc3ncnc(N)c3C#N)nc3cccc(Cl)c3c2=O)c1` (stereo partly drawn) [Compound 129, 1-(3-(2-((S)-1-((6-amino-5-cyanopyrimidin-4-yl)amino)ethyl)-5-chloro-4-oxoquinazolin-3(4H)-yl)phenyl)-3-(2-hydroxypropyl)urea]: the IC50 turned out to be 9 nM at PI3Kβ, 4 nM at PI3Kδ and 5600 nM on PI3Kγ (setting [1]).
With `O=C(NCCCO)Nc1cccc(-n2c([C@H](COCc3ccccc3)Nc3ncnc4[nH]cnc34)nc3cccc(Cl)c3c2=O)c1` [Compound 131, (R)-1-(3-(2-(1-((9H-purin-6-yl)amino)-2-(benzyloxy)ethyl)-5-chloro-4-oxoquinazolin-3(4H)-yl)phenyl)-3-(3-hydroxypropyl)urea], the IC50 was 43 nM at PI3Kβ, 41 nM at PI3Kδ and more than 10000 nM on PI3Kγ.
Regarding `CCNC(=O)Nc1cccc(-n2c([C@H](COCc3ccccc3)Nc3ncnc(N)c3C#N)nc3cccc(Cl)c3c2=O)c1` [Compound 132, (R)-1-(3-(2-(1-((6-amino-5-cyanopyrimidin-4-yl)amino)-2-(benzyloxy)ethyl)-5-chloro-4-oxoquinazolin-3(4H)-yl)phenyl)-3-ethylurea], the values for the IC50 at PI3Kβ, on PI3Kδ and at PI3Kγ (setting [1]) were 21 nM, 10 nM and 8700 nM, respectively.
For `COCCCNC(=O)Nc1cccc(-n2c([C@H](C)Nc3ncnc(N)c3C#N)nc3cccc(Cl)c3c2=O)c1` [Compound 134, (S)-1-(3-(2-(1-((6-amino-5-cyanopyrimidin-4-yl)amino)ethyl)-5-chloro-4-oxoquinazolin-3(4H)-yl)phenyl)-3-(3-methoxypropyl)urea], the IC50 at PI3Kβ came out at 5 nM; on PI3Kδ, 10 nM; at PI3Kγ (setting [1]) it was 6000 nM.
In the case of `COCCCNC(=O)Nc1cccc(-n2c([C@H](C)Nc3ncnc4[nH]cnc34)nc3cccc(Cl)c3c2=O)c1` [Compound 135, (S)-1-(3-(2-(1-((9H-purin-6-yl)amino)ethyl)-5-chloro-4-oxoquinazolin-3(4H)-yl)phenyl)-3-(3-methoxypropyl)urea], the IC50 at PI3Kβ worked out at 16 nM; at PI3Kδ it was 35 nM; on PI3Kγ (setting [1]), 3500 nM.
As to `CCNC(=O)Nc1cccc(-n2c([C@H](C)Nc3ncnc(N)c3C(=O)O)nc3cccc(Cl)c3c2=O)c1` [Compound 136, (S)-4-amino-6-((1-(5-chloro-3-(3-(3-ethylureido)phenyl)-4-oxo-3,4-dihydroquinazolin-2-yl)ethyl)amino)pyrimidine-5-carboxylic acid], the concentration for half-maximal inhibition (IC50) is 1800 nM on PI3Kβ, 610 nM at PI3Kδ and more than 10000 nM at PI3Kγ (setting [1]).
`C[C@H](Nc1ncnc(N)c1C#N)c1nc2cccc(Cl)c2c(=O)n1-c1cccc(NC(=O)NCCC(=O)O)c1` [Compound 137, (S)-3-(3-(3-(2-(1-((6-amino-5-cyanopyrimidin-4-yl)amino)ethyl)-5-chloro-4-oxoquinazolin-3(4H)-yl)phenyl)ureido)propanoic acid]: the IC50 at PI3Kβ turned out to be 33 nM; on PI3Kδ it was 12 nM; on PI3Kγ (setting [1]), 7600 nM.
In the case of `C[C@H](Nc1ncnc(N)c1C#N)c1nc2cccc(Cl)c2c(=O)n1-c1cccc(NC(=O)NC(C)(C)CO)c1` [Compound 138, (S)-1-(3-(2-(1-((6-amino-5-cyanopyrimidin-4-yl)amino)ethyl)-5-chloro-4-oxoquinazolin-3(4H)-yl)phenyl)-3-(1-hydroxy-2-methylpropan-2-yl)urea], the half-inhibitory concentration (IC50) on PI3Kβ is 4 nM; at PI3Kδ it was 7 nM; on PI3Kγ (setting [1]) it was 5200 nM.
On to `C[C@H](Nc1ncnc(N)c1C#N)c1nc2cccc(Cl)c2c(=O)n1-c1cccc(NC(=O)NC(C)(C)C(=O)O)c1` [Compound 139, (S)-2-(3-(3-(2-(1-((6-amino-5-cyanopyrimidin-4-yl)amino)ethyl)-5-chloro-4-oxoquinazolin-3(4H)-yl)phenyl)ureido)-2-methylpropanoic acid], for which the half-maximal inhibitory concentration (IC50) was 30 nM at PI3Kβ, 13 nM at PI3Kδ and 8100 nM on PI3Kγ (setting [1]).
Consider `C[C@H](Nc1ncnc(N)c1C#N)c1nc2cccc(Cl)c2c(=O)n1-c1cccc(NC(=O)NC(C)(C)CCO)c1` [Compound 140, (S)-1-(3-(2-(1-((6-amino-5-cyanopyrimidin-4-yl)amino)ethyl)-5-chloro-4-oxoquinazolin-3(4H)-yl)phenyl)-3-(4-hydroxy-2-methylbutan-2-yl)urea], for which the 50% inhibitory concentration (IC50) on PI3Kβ was 6 nM; at PI3Kδ it was 5 nM; at PI3Kγ (setting [1]), 5100 nM.
As to `C[C@H](Nc1ncnc(N)c1C#N)c1nc2cccc(Cl)c2c(=O)n1-c1cccc(NC(=O)NCC(C)(C)CO)c1` [Compound 141, (S)-1-(3-(2-(1-((6-amino-5-cyanopyrimidin-4-yl)amino)ethyl)-5-chloro-4-oxoquinazolin-3(4H)-yl)phenyl)-3-(3-hydroxy-2,2-dimethylpropyl)urea], the IC50 on PI3Kβ was found to be 6 nM; on PI3Kδ it was 6 nM; on PI3Kγ (setting [1]), 1600 nM.
With `C[C@H](Nc1ncnc(N)c1C#N)c1nc2cccc(Cl)c2c(=O)n1-c1cccc(NC(=O)NCCC(C)(C)O)c1` [Compound 142, (S)-1-(3-(2-(1-((6-amino-5-cyanopyrimidin-4-yl)amino)ethyl)-5-chloro-4-oxoquinazolin-3(4H)-yl)phenyl)-3-(3-hydroxy-3-methylbutyl)urea], the IC50 on PI3Kβ stood at 12 nM; at PI3Kδ, 6 nM; on PI3Kγ (setting [1]), 7100 nM.
With `C[C@H](Nc1ncnc(N)c1C#N)c1nc2cccc(Cl)c2c(=O)n1-c1cccc(NC(=O)Nc2ccccc2OCCO)c1` [Compound 143, (S)-1-(3-(2-(1-((6-amino-5-cyanopyrimidin-4-yl)amino)ethyl)-5-chloro-4-oxoquinazolin-3(4H)-yl)phenyl)-3-(2-(2-hydroxyethoxy)phenyl)urea], the IC50 on PI3Kβ came out at 7 nM; at PI3Kδ it was 5 nM; at PI3Kγ (setting [1]) it was 1500 nM.
In the case of `C[C@H](Nc1ncnc(N)c1C#N)c1nc2cccc(Cl)c2c(=O)n1-c1cccc(NC(=O)Nc2ccccc2S(C)(=O)=O)c1` [Compound 144, (S)-1-(3-(2-(1-((6-amino-5-cyanopyrimidin-4-yl)amino)ethyl)-5-chloro-4-oxoquinazolin-3(4H)-yl)phenyl)-3-(2-(methylsulfonyl)phenyl)urea], the IC50 on PI3Kβ was 17 nM; on PI3Kδ, 4 nM; on PI3Kγ (setting [1]), 6500 nM.

Broadly, the IC50 is the point on the concentration scale where inhibition reaches its midpoint.

These data come from US10221197B2, “Phosphatidylinositol 3-kinase inhibitors” (Gilead Sciences, Inc., priority 2014, dated 2019).
